Results published in US20250162973A1, “METHODS OF SYNTHESIS AND USES OF AGRIMOL COMPOUNDS” (Versitech Limited, priority 2022, published 2025).

Legend:
NCI-H460 cells = test: Wound healing assay (cell migration); type: cell-based, human
Protocol: For wound healing assay in the present study, the cells were grown to approximately 80% confluence in 12-well plates in the complete growth medium and then a straight line was scraped at the central part of the each well by a 200 μL pipette tip. […] […] Each condition was performed in triplicate.

A549 xenograft = test: Human tumor xenograft model; type: in vivo, nude mice; settings: AGB 3 mg/kg, tail intravenous injection
[1] = system: stem-like NCI-H460 xenograft; test: Cancer stem like xenograft model; type: in vivo, NOD/SCID mice; settings: AGB 3 mg/kg, tail intravenous injection
Protocol: In vivo anticancer efficacy of AGB was evaluated using the human tumor xenograft model, in which human cancer cells were inoculated into immune-deficiency mice. Briefly, twelve six-week-old (16-18 g) BALB/c nude mice were randomly divided into two groups and both received subcutaneous injection of NCI-H460 cells (2 million cells in 0.1 mL PBS) at its right flank of mice and tumor became palpable after three days of injection. Mice were received intravenous (i.v.) injections of AGB or vehicle control (10% DMSO and 0.05% Tween 80 in normal saline) every two days in two weeks. The length and width of tumor were measured by Vernier caliper and the body weight was monitored every two or three days. At the end of experiment, mice were sacrificed and decapitated. The liver, kidney, and tumor were collected and fixed in 4% formaldehyde for further haematoxylin and eosin (H&E) staining. All animal experiments in this project received human care and study protocols complied with the guidelines of the Laboratory Animal Services Centre of the University of Hong Kong. Tumor sizes and body weight were recorded before the drug injection every time and tumor volume (V) was calculated by the formula V=LW^2/2, where L is tumor length and W is tumor width. […]
The in vivo antitumor potential of AGB using the xenograft mouse model was assessed. […]

HSP60 = HSP60 (Homo sapiens, UniProt P10809); test: Tryptophan fluorescence quenching assay; settings: Stern-Volmer analysis; read-out: Kd of AGB binding to HSP60
Chain of HSP60 (P10809 27-573): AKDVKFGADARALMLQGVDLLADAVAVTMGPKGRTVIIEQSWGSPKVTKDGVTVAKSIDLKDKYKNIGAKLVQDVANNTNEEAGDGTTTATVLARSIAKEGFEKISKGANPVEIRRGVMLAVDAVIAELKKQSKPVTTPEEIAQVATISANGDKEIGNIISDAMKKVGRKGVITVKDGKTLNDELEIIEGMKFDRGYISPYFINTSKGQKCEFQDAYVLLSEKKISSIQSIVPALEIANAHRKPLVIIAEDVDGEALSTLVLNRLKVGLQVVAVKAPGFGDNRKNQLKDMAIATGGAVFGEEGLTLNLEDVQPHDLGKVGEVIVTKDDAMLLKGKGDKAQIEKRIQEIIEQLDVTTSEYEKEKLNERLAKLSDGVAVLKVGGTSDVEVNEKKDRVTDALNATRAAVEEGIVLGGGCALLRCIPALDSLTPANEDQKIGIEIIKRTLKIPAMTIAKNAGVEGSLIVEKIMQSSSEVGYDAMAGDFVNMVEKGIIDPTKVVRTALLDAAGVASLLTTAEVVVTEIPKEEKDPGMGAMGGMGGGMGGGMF
Protocol: (§1) FIG. 5A is a volcano plot (ΔTm, p-value) for TPP data obtained from NCI-H460 cells with 4 μM AGB treatment for 1 h. The criteria were set as ΔTm>2° C. and p<0.05. FIG. 5B is a graph showing results of the tryptophan fluorescence quenching assay for the direct interaction between AGB and three target proteins. Upper, tryptophan fluorescence titration of recombinant proteins with AGB. […] For CS, its fluorescence decrease was saturated when AGB concentrations increased to about 32 μM. Lower, the normalized tryptophan intensities at an emission of 320 nm were plotted as a function of total added concentration of AGB. The dissociation constants (Kd) between AGB and three proteins were then calculated by fitting this plot with Stern-Volmer Equation. […] The fluorescence intensity was presented as percentage relative to control groups. […]
(§2) To further examine whether AGB interacts directly with the above three identified proteins, the intrinsic tryptophan fluorescence properties of these proteins were examined in the presence of AGB at different concentrations. Upon binding with AGB, proteins experience a change of the tryptophan environment, which can be visualized by fluorescence spectroscopy. As shown in FIG. 5B the tryptophan fluorescence of three proteins were all quenched by AGB in a concentration-dependent manner.

TALDO1 = molecular target: T1, TALDO1 (Homo sapiens, UniProt P37837); test: Tryptophan fluorescence quenching assay; settings: Stern-Volmer analysis; read-out: Kd of AGB binding to TALDO1
T1 construct: endogenous in cells
T1 sequence (P37837 1-337): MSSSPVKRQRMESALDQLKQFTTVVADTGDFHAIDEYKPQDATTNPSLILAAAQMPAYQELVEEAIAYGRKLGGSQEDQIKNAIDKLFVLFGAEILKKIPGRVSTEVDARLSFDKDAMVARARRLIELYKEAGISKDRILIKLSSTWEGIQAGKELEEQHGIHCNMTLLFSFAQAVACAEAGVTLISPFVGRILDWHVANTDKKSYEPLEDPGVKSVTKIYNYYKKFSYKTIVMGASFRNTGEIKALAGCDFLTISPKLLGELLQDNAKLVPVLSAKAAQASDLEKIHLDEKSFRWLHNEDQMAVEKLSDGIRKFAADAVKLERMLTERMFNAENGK
Protocol: as §1, §2

CCCC(=O)c1c(O)c(Cc2c(O)c(Cc3c(O)c(C)c(OC)c(C(=O)CCC)c3O)c(O)c(C(=O)[C@@H](C)CC)c2O)c(O)c(C)c1OC [AGB, Agrimol B]
width of the scratch wound (NCI-H460 cells; 1 μM of AGB): significantly decreased
wound closure (NCI-H460 cells; 4 μM or 10 μM of AGB, 16 h and 32 h): wound closure was inhibited
concentration giving significant reduction of cell migration (NCI-H460 cells; wound healing assay): around 4 μM
tumor growth inhibition rate (A549 xenograft): 60%
tumor growth inhibition rate [1]: 64%
Kd (HSP60): 27 µM
Kd (TALDO1): 22.7 µM
